One data set deals with T1, CXCR3 (Homo sapiens, UniProt P49682).
T1 construct: CXCR3-expressing cells were prepared according to standard methods and used in most assays
T1 sequence (P49682 1-368): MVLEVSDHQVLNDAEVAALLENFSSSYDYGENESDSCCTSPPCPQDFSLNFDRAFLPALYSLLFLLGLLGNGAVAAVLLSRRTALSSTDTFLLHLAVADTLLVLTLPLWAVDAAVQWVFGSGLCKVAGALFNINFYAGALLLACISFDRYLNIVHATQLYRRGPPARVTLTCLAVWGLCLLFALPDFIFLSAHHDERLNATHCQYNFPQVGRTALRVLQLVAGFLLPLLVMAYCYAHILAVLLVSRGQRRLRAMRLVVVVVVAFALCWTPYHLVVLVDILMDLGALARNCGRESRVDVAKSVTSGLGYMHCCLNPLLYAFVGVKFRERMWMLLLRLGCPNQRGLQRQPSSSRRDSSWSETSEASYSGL
Kind of data set: CXCR3 binding assay: inhibition of 125I-IP-10 binding to CXCR3-expressing cells. As to conditions: concentration required to reduce binding of labeled IP-10 to the receptor by 50%, approx. 3 hours at 4° C. As to the method: Source plates of chemical libraries were obtained from commercial vendors and contained individual compounds at 5 mg/mL in DMSO, or in some instances, at 1 mg/mL. From these, multiple compound plates containing 10 compounds in each well were made, and these were diluted in 20% DMSO to a concentration of 50 μg/mL (10 μg/mL for those beginning at 1 mg/mL). An aliquot of 20 μL of each mixture was put into the test plates, which were stored frozen until use.
CXCR3-expressing cells were prepared according to standard methods and used in most assays. The cells were cultured in IMDM-5% FBS, and harvested when the concentration was between 0.5-1.0×10^6 cells/mL. The cells were centrifuged and resuspended in assay buffer (20 mM HEPES, 80 mM NaCl, 1 mM CaCl2, 5 mM MgCl2, and with 0.2% bovine serum albumin, pH 7.1) to a concentration of 5.6×10^6 cells/mL. Using a Multi-Probe automated system, 0.09 mL of cells was added to each well of the assay test plates containing the compounds, followed by 0.09 mL of ^125I-Ip-10 (from New England Nuclear) diluted in assay buffer (final concentration ˜25-100 pM, with ˜50,000 cpm per well). The final concentration of the compounds was 1-5 μg/mL each. The plates were sealed and incubated for approximately 3 hours at 4° C. on a shaker platform. (In some experiments radiolabeled MIG was used.) The assay plates were harvested using Packard filter plates, pre-soaked in PEI solution, on the vacuum harvest apparatus. Scintillation fluid (35 μL) was added to each of the wells, the plates were sealed and counted in a Top Count scintillation counter. Control wells contained either diluent only (for total counts) or excess IP-10 (1 μg/mL, for non-specific binding) and were used to calculate the percent of total inhibition for each set of compounds. Further tests on individual compounds were carried out in the same manner. IC50 values are those concentrations required to reduce the binding of labeled IP-10 to the receptor by 50%.
The binding of IP-10 or MIG to CXCR3 was first optimized by testing various pH and salt concentrations for their effect in a homologous competition assay. Maximum binding of radiolabeled MIG takes place under low salt (80 mM) conditions, as compared to normal salt (140 mM), while there is no difference between pH 7.1 and 7.4.

Data set [1] relates to 5 other chemokine receptors on activated lymphocytes. Put plainly: Signalling (calcium mobilization) by other chemokines on activated lymphocytes. The data set is classed as cell-based, human. As to the method:
Calcium mobilization assays were performed by labeling human peripheral blood lymphocytes (cultured in 10 ng/mL IL-2 for at least 12 days) with INDO-1 dye (45 min at room temperature), washing with PBS, and resuspending into flux buffer (HBSS with 1% fetal bovine serum). For each test, 1×10^6 cells were incubated at 37° C. in the cuvette of a PTI spectrometer, and the ratio of 400/490 nm emission was plotted over time (typically 2-3 minutes), with compounds added at 5 seconds, followed by IP-10 or other chemokines.

The source of these data is patent publication US6559160B1, “Compounds and methods for modulating cxcr3 function” (Chemocentryx, Inc., priority 1999, dated 2003).

Structures are written as SMILES.

As usually defined, the melting point is the temperature, or range, at which the solid turns liquid. The IC50 is the concentration needed to halve the response being measured. The low end stands for greater potency in that assay, the high end for weaker potency in that assay.

`CCCCCCCCCC(=O)N(CCN(C)C)C(C)c1nc2c(OC)c(OC)c(OC)cc2c(=O)n1-c1ccc(F)cc1` (stereo not shown) [Compound 4.7]: the melting point was determined as 106.7 °C.
In the case of `CCCCCCCCC(=O)N(CCN(C)C)C(C)c1nc2ccccc2c(=O)n1-c1ccc(Cl)cc1` (stereo not shown) [Compound 1.10], the IC50 at CXCR3 is not above 800 nM.
In turn, `CCCCCCCCCC(=O)N(CCN(C)C)C(C)c1nc2ccc(OC)cc2c(=O)n1-c1ccc(OC)cc1` (stereo not shown) [Compound 4.1] yielded a melting point of 124.2 °C.
For `CCCCCCCC(=O)N(CCN(C)C)C(C)c1nc2ccccc2c(=O)n1-c1ccc(OC)cc1` (stereo not shown) [Compound 1.5], the IC50 on CXCR3 was in the range of 800 to 5000 nM.
In the case of `CCCCCCCCCC(=O)N(CCN(C)C)C(C)c1nc2ccccc2c(=O)n1-c1ccccc1` (stereo not shown) [Compound 1.12], on CXCR3, the IC50 is more than 5000 nM.
On the same count and under the same terms, under `CCCCCCCCCCCCCC(=O)N(CCN(C)C)C(C)c1nc2ccccc2c(=O)n1-c1ccc(F)cc1` (stereo not shown) [Compound 1.14] stands not above 800 nM.
Molecule `CCCCCCCCCCCC(=O)N(CCN(C)C)C(C)c1nc2ccccc2c(=O)n1-c1ccc(Cl)cc1` (stereo not shown) [Compound 1.13] displayed an IC50 on CXCR3 of 800 to 5000 nM.
On CXCR3, `CCCCCCCCC(=O)N(CCN(C)C)C(C)c1nc2ccccc2c(=O)n1-c1ccc(C)cc1` (stereo not shown) [Compound 1.7] returned an IC50 of more than 5000 nM.
For `CCCCCCCCC(=O)N(CCN(C)C)C(C)c1nc2ccccc2c(=O)n1-c1ccc(OC)cc1` (stereo not shown) [Compound 1.9], the IC50 on CXCR3 is not above 800 nM.
Turning to `CCCCCCC(=O)N(CCN(C)C)C(C)c1nc2ccccc2c(=O)n1-c1ccc(OC)cc1` (stereo not shown) [Compound 1.3], the IC50 at CXCR3 lay in the range of 800 to 5000 nM.
`CCCCCCCCCC(=O)N(CCN(C)C)C(C)c1nc2ccc(Cl)cc2c(=O)n1-c1ccc(F)cc1` (stereo not shown) [Compound 4.5]: the melting point was 122.9 °C.
In the case of `CCCCCCCCCCCCCC(=O)N(CCN(C)C)C(C)c1nc2ccccc2c(=O)n1-c1ccc(OC)cc1` (stereo not shown) [Compound 1.15], on CXCR3, the IC50 was not above 800 nM.
In turn, `CCCCCCCC(=O)N(CCN(C)C)C(C)c1nc2ccccc2c(=O)n1-c1ccc(F)cc1` (stereo not shown) [Compound 1.6] gave an IC50 on CXCR3 of 800 to 5000 nM.
For `CCCCCC(=O)N(CCN(C)C)C(C)c1nc2ccccc2c(=O)n1-c1ccc(F)cc1` (stereo not shown) [Compound 1.1], the IC50 at CXCR3 was more than 5000 nM.
With `CCCCCCCCCC(=O)N(CCN(C)C)C(C)c1nc2ccc(C)cc2c(=O)n1-c1ccc(F)cc1` (stereo not shown) [Compound 4.4], the melting point amounted to 121 °C.
On to `CCCCCCCC(=O)N(CCN(C)C)C(C)c1nc2ccccc2c(=O)n1-c1ccc(Br)cc1` (stereo not shown) [Compound 1.4], for which, on CXCR3, the IC50 was 800 to 5000 nM.
On the same count and under the same terms, the result for `CCCCCCC(=O)N(CCN(C)C)C(C)c1nc2ccccc2c(=O)n1-c1ccc(F)cc1` (stereo not shown) [Compound 1.2] reads more than 5000 nM.
On to `CCCCCCCCCC(=O)N(CCN(C)C)C(C)c1nc2ccccc2c(=O)n1-c1ccc(F)cc1` (stereo not shown) [Compound 1.11], for which, in data set [1], the “interference with signalling by other chemokines” value was “did not interfere with signalling by those chemokines”. The molecule further registered an IC50 at CXCR3 not above 800 nM.
